Columns and labels:
Test in all cases: relative viability (nuclei count vs DMSO), 5 days (fraction); higher = more cells survive
[1] = compound: CCOC(=O)CCNc1cc(N2CCc3ccccc3CC2)nc(-c2ccccn2)n1 [GSK-J4]
Procedure, shortened: (§1)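 Following overnight incubation at 37 °C, lung cancer cell lines in 1536-well plates were pinned with five library-drug doses (not always all listed) in √10 steps on vehicle-anchored plates. The cells then spent 5 days without medium change before a combined fix, permeabilisation and Hoechst stain, 4× imaging and MetaXpress nuclear counts. Viability is the treated-to-vehicle ratio of nuclei, taken as the median across plates. Only plates with control CV below 25% and at least one doubling passed.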

[2] = compound: CN1CCC(CC1)OC2=CC(=C(C=C2)NC3=NC=C4C(=N3)N(C(=O)N4C)C5CCCC5)OC [AZ3146]
Procedure, shortened: as §1

[3] = compound: CCOC(=O)CCNc1cc(N2CCc3ccccc3CC2)nc(-c2ccccn2)n1 [GSK-J4] + CC1(C)CCC(c2ccc(Cl)cc2)=C(CN2CCN(c3ccc(C(=O)NS(=O)(=O)c4ccc(N[C@H](CCN5CCOCC5)CSc5ccccc5)c(S(=O)(=O)C(F)(F)F)c4)cc3)CC2)C1 [Navitoclax] (partner 0.5 µM)
Procedure, shortened: (§2)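 Medians of duplicate plates are given as relative viability. That measure is the nuclei count in treated wells divided by the count in vehicle wells. Counts were taken on 4× images of lung cancer cell lines in 1536-well plates, 5 days after pin-tool dosing the day after seeding with one drug alone or a fixed anchor-drug dose plus five library-drug doses (not always all listed) in √10 steps.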

[4] = compound: CCOC(=O)CCNc1cc(N2CCc3ccccc3CC2)nc(-c2ccccn2)n1 [GSK-J4] + COc1cc2c(Oc3ccc(NC(=O)C4(C(=O)Nc5ccc(F)cc5)CC4)cc3F)ccnc2cc1OCCCN1CCOCC1 [Foretinib] (partner 0.25 µM)
Procedure, shortened: as §2

Cell Line	relative viability ([1]; 0.5 µM)	relative viability ([1]; 1.581 µM)	relative viability ([1]; 5 µM)	relative viability ([1]; 15.81 µM)	relative viability ([1]; 50 µM)	relative viability ([2]; 0.08 µM)	relative viability ([2]; 0.253 µM)	relative viability ([2]; 0.8 µM)	relative viability ([2]; 2.53 µM)	relative viability ([2]; 8 µM)	relative viability ([3]; first compound 0.5 µM)	relative viability ([3]; first compound 1.581 µM)	relative viability ([3]; first compound 5 µM)	relative viability ([3]; first compound 15.81 µM)	relative viability ([3]; first compound 50 µM)	relative viability ([4]; first compound 0.5 µM)	relative viability ([4]; first compound 5 µM)	relative viability ([4]; first compound 15.81 µM)	relative viability ([4]; first compound 50 µM)	relative viability ([4]; first compound 1.581 µM)
HCC-15	0.929	0.716	0.927	0.895	0.767	0.98	1.05	0.993	1.03	0.99	0.692	0.701	0.779	0.566	0.444	0.949	0.898	0.854	0.69	–
NCI-H1666	0.977	0.79	1.19	1	0.804	1.09	0.953	1.02	1.05	1.05	1.08	–	1.19	0.918	0.472	0.998	1.08	0.907	0.749	0.742
NCI-H1395	1.05	0.893	0.827	0.964	0.81	0.958	0.879	0.86	0.985	0.85	1.31	1.08	0.896	1.05	0.898	0.937	0.865	0.973	0.946	0.983
SK-LU-1	0.947	0.865	0.826	0.838	0.704	0.944	1.07	1	1.08	0.936	0.733	0.832	0.682	0.596	0.537	0.727	0.62	0.598	0.603	0.722
NCI-H1299	0.982	0.952	0.877	0.998	1	0.987	0.995	0.996	1.02	0.992	1.08	0.875	0.955	1.04	0.971	1.06	0.994	1.07	1.11	1.03
HOP-62	1	0.835	1.04	0.987	0.749	0.958	0.986	0.98	1.03	0.956	0.955	0.989	1.11	1.1	0.707	1	1.02	1.03	0.766	0.882
NCI-H1651	0.986	0.856	0.973	0.948	0.96	0.902	0.879	0.968	0.952	1.02	0.999	0.942	1.03	1.05	0.958	0.765	0.922	0.663	0.8	0.905
HCC-366	1.03	0.851	–	0.988	0.989	0.9	0.939	1.02	0.973	0.988	1.08	0.806	–	1.02	1.03	0.955	–	0.915	0.874	0.881
EMC-BAC-2	0.971	0.909	0.647	0.882	0.955	0.772	0.76	1.07	1.1	0.907	1.17	1.07	1.24	1.04	1.13	0.93	0.685	0.982	0.647	0.937
NCI-H2228	0.904	1.04	1.15	0.997	0.948	1.04	0.973	1.1	0.995	0.933	1.1	0.868	1.07	0.8	0.871	0.764	0.854	0.817	1.06	1.03
LK-2	1.07	0.886	1.22	0.756	1	0.743	0.782	0.961	1.08	1.05	0.884	0.838	0.874	0.829	1.05	1.26	1.31	0.794	0.805	–
NCI-H1650	1.11	0.791	0.889	0.808	0.682	0.966	0.873	0.812	0.864	0.652	1.07	0.916	1.33	0.995	0.565	1.07	1.18	1.03	0.949	0.456
Calu-6	0.979	0.945	0.941	0.983	1.01	0.964	1.03	0.948	0.948	0.799	0.86	0.74	0.779	0.874	0.716	0.83	0.867	0.839	0.822	0.867
PC-3 [JPC-3]	1.01	1.03	0.953	0.95	0.955	0.907	0.97	1.01	1.05	0.979	0.77	0.742	0.787	0.743	0.753	0.96	1.01	0.959	0.762	1.01
A549	0.981	0.731	0.862	0.838	0.924	0.852	0.988	1.03	0.952	0.462	1.08	1.15	1.24	1.24	1.2	0.84	0.907	0.911	0.828	0.874
A-427	1	–	0.766	0.865	0.37	0.963	1	1.01	1.04	0.766	0.951	–	0.925	0.906	0.782	1.05	1.11	0.532	0.218	–

— the supplement of paper PMC10307832
